Measurements taken from patent US6930103B2, “Use of vasopeptidase inhibitors in the treatment of metabolic diseases, nephropathy and advanced glycation end-product associated diseases” (Aventis Pharma Deutschland GmbH, priority 2002, dated 2005).

Columns and labels:
[1] = system: ZDF rats; assay: Urinary albumin/creatinine in ZDF rats, treatment starting at an animal age of 6 months; format: in vivo, rat; conditions: start at age 6 months, mean
[2] = system: ZDF rats; assay: Dot blot analysis of kidney AGE subtypes (CML, CEL, pentosidine) in ZDF rats; format: in vivo, rat
Description: Kidney AGE values were determined by Dot blot analysis (Stracke et al., Exp. Clin. Endocrinol. Diabets 2002, 109, 330-336) and Reversed-phase high performance liquid chromatography or RP-HPLC (Drusch et al., Food Chem. 1999, 65, 547-553).
Kidney-samples for the dot blot analysis were obtained from 17-week-old male ZDF rats, control rats and ZDF rats treated for seven weeks with 30 mg/kg/d of compound (II-B) and 35 mg/kg/d of compound (III-B). Three animals of each group were sacrificed, the kidneys removed and immediately frozen in liquid nitrogen. Grinding of the kidneys was performed in liquid nitrogen using a freezer mill (Freezer 6750, C3 Analysetechnik GmbH). Kidney sample (10 mg) was dissolved in 1 ml phosphate buffered saline (PBS containing 0.5 g/l Tween 20, 0.5 mM PMSF, […]). The solution was treated two times for five seconds with an ultrasonic cell disrupter (45% power, Bandolin Sonoplus HD 2070), centrifuged for 20 minutes at 4000 rpm and the supernatant was used for dot blot analysis. The nitrocellulose membrane was placed in the dot blot apparatus and washed twice with Tris Buffered Saline (TBS), 100 μl TBS/well. For each sample, 10 μg protein (protein concentration of the samples were determined with the DC Protein Assay, Bio Rad) was diluted in 100 μl TBS and loaded on to the nitrocellulose membrane (Amersham). The membrane was incubated over night in TBS with Tween 20 (TBST; 20 mM Tris, 137 mM NaCl, 0.05% v/v Tween 20) with 5% non-fat dry milk at 4° C. and incubated for 1 hour at room temperature using the following antibody concentration: anti-CML 011 (Biologo) 0.25 μg/ml, anti-CEL (Biologo) 0.25 μg/ml and anti-pentosidine 012 (Biologo) 0.25 μg/ml. After extensive washing in TBST with 5% non-fat dry milk, membranes were exposed to […] anti-mouse IgG antibodies (Dianova) for one hour at room temperature. Membranes were washed again and exposed to the enhanced chemofluorescence detection system (Amersham) according to manufacturer's instructions. Relative fluorescence was determined with the Fluor-Imager 595 (Molecular Dynamics) and quantified using the Image-Quant software. Results were expressed in relative fluorescence (rf) times 10^5 (rf*10^5).

[3] = system: endothelial cells; assay: NO and superoxide release from endothelial cells in rabbits fed an atherogenic diet; format: in vivo, White New Zealand rabbits; conditions: varied diet rabbits; mean ± SEM
Source text: It was shown in the atherogenic rabbit model (White New Zealand rabbits were fed with 0.25% cholesterol plus 3% coconut oil) that even a short 6 week period of an atherogenic diet leads to sustained endothelial dysfunction, even though the animals received a normal diet for 3 months thereafter.
The endothelium-dependent relaxation of isolated aortic rings of rabbits as well as the release of nitric oxide and superoxide from endothelial cells serve as measures of endothelial dysfunction.
• Groups: • Standard: 18 weeks normal diet • Atherogenic: 18 weeks atherogenic diet (3% Coconut oil+0.25% Cholesterol) • Varied diet (Var.): 6 weeks atherogenic diet+12 weeks normal diet • Varied Diet+ramipril: 6 weeks atherogenic diet+12 weeks normal diet+ramipril • Varied diet+compound (II-B): 6 weeks atherogenic diet+12 weeks normal diet+cpd. (II-B)
NO and O2^− are markers for endothelial function: increased relaxation and increased NO levels are beneficial, while increased O2^− formation inhibits the beneficial effects of NO.

[4] = system: fat ZDF rats; assay: Histological examination of kidneys of ZDF rats after 6 months treatment; format: in vivo, rat; design: Armanni-Ebstein cells MEAN SEVERITY / Glomerulosclerosis MEAN SEVERITY / Atrophy: renal tubule MEAN SEVERITY / Casts: renal tubule MEAN SEVERITY: scale not given here
Description: The protein and creatinine excretion in the urine of male Zucker Diabetic Fatty (ZDF) Rats (ZDF Gmi fa/fa) and heterozygous control animals (ZDF Gmi −/+) of 10, 17, 27 and 37 weeks age was determined. In further groups, diabetic rats were chronically given either ramipril (1 mg/kg/day, in drinking water) or a compound of formula (II-B) (30 mg/kg/day, in food) over a period from 10 to 37 weeks. The animals were sacrificied after 37 weeks, and their kidneys examined histologically.
In the attached tables a summary of the findings on the kidneys after a treatment period of 6 months is listed.

[5] = 17-week-old ZDF rats treated for seven weeks, dot blot
[6] = kidneys, male fat ZDF rats, terminal sacrifice
[7] = kidneys, male fat ZDF rats, terminal sacrifice, examined: D1 9, D4 8
[8] = kidneys, male fat ZDF rats, terminal sacrifice, examined: D1 9, D4 8, listed as compound (II-B)

SMILES: CC(=O)S[C@H](C(=O)N[C@H]1Cc2ccccc2[C@H]2CCC[C@@H](C(=O)O)N2C1=O)C(C)C [cpd. (II-B)]
- Albumin/Creatinine ([1]; 6 weeks treatment): 135.08 mg/mmol
- Albumin/Creatinine ([1]; 12 weeks treatment): 100.86 mg/mmol
- Albumin/Creatinine ([1]; Basal): 1330.99 mg/mmol
- AGE-subtype CEL in the kidneys (anti-CEL), mean [2, 5]: 50.24 rf * 10^5
- AGE-subtype CML in the kidneys (anti-CML 011), mean [2, 5]: 32.62 rf * 10^5
- AGE-subtype pentosidine in the kidneys (anti-pentosidine 012), mean [2, 5]: 44.99 rf * 10^5
- Kidney AGE (Nε-(carboxymethyl)lysine or CML) values ([2]; diabetic rats, summary in words): normalizes
- AGE values for subtype CEL compared to untreated ZDF rats ([2]; kidney, dot blot, in words): significantly less
- AGE values for subtype CML compared to untreated ZDF rats ([2]; kidney, dot blot, in words): significantly less
- AGE values for subtype pentosidine compared to untreated ZDF rats ([2]; kidney, dot blot, in words): significantly less
- NO [3]: 329.19 ± 30.10 nM
- O2^− (superoxide) [3]: 30.18 ± 6.00 nM
- Armanni-Ebstein cells GRADE 2: number of animals [4, 6]: 5
- Armanni-Ebstein cells GRADE 3: number of animals [4, 6]: 3
- Armanni-Ebstein cells MEAN SEVERITY [4, 6]: 2.4
- Atrophy: renal tubule GRADE 1: number of animals [4, 6]: 1
- Atrophy: renal tubule GRADE 3: number of animals [4, 6]: 1
- Atrophy: renal tubule MEAN SEVERITY [4, 6]: 2.0
- Casts: renal tubule GRADE 1: number of animals [4, 6]: 2
- Casts: renal tubule GRADE 2: number of animals [4, 6]: 1
- Casts: renal tubule MEAN SEVERITY [4, 6]: 1.3
- Glomerulosclerosis GRADE 1: number of animals [4, 6]: 1
- Glomerulosclerosis GRADE 3: number of animals [4, 6]: 1
- Glomerulosclerosis MEAN SEVERITY [4, 6]: 1.0
- Armanni-Ebstein cells: number of animals with finding (total affected) [4, 7]: 8
- Atrophy: renal tubule: number of animals with finding (total affected) [4, 7]: 2
- Casts: renal tubule: number of animals with finding (total affected) [4, 7]: 3
- Glomerulosclerosis: number of animals with finding (total affected) [4, 7]: 1
- Atrophy: renal tubule: number of animals with finding (total affected) [4, 8]: low incidences
- Casts: renal tubule: number of animals with finding (total affected) [4, 8]: low incidences
- Glomerulosclerosis: number of animals with finding (total affected) [4, 8]: not present
- Dilatation: pelvis GRADE 2: number of animals ([4]; rat, in vivo): 1
- Dilatation: pelvis GRADE 3: number of animals ([4]; rat, in vivo): 5
- Dilatation: pelvis GRADE 4: number of animals ([4]; rat, in vivo): 1
- Dilatation: pelvis MEAN SEVERITY ([4]; rat, in vivo): 3.0
